For 14 molecules, IC50 results are on record in US20260356851A1, “TRICYCLIC COMPOUNDS AND USES THEREOF” (HUTCHMED LIMITED, priority 2023, published 2026).

What all share (assay type): cell-based
In test [1] the target is T1, pERK1/2 (Thr202/Tyr204), NCI-1H358 (KRAS G12C) (Homo sapiens, UniProt P01116, G12C).
T1 construct: pERK1/2 HTRF read-out
As to the kind of experiment: Assay of intracellular pERK1/2 (Thr202/Tyr204) phosphorylation in NCI-H358 cells (KRAS G12C). The conditions noted are these: pERK1/2, 2 days, read-out: NCI-H358 (KRAS G12C) IC50. The gist of the method:
(§1)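 Cells (10000-12000/well) exposed to 3-fold compound dilutions for 2 days at 37 °C, then lysed; pERK1/2 (Thr202/Tyr204) measured by HTRF with d2 and cryptate antibodies, 665/615 nm ratio.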

Test [2] deals with T2, pERK1/2 (Thr202/Tyr204), PANC-1 (KRAS G121D) (Homo sapiens, UniProt P01116, G12D).
T2 construct: pERK1/2 HTRF read-out
T2 sequence (P01116 1-188 isoform P01116-2 G12D): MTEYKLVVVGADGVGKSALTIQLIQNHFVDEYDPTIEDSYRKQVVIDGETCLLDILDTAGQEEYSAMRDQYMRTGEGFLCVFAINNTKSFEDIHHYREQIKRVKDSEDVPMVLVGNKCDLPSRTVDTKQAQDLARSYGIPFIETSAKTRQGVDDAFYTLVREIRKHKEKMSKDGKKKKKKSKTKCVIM
As to the kind of experiment: Assay of intracellular pERK1/2 (Thr202/Tyr204) phosphorylation in PANC-1 cells (KRAS G12D). The conditions noted are these: pERK1/2, 2 days, read-out: PANC-1 (KRAS G12D) IC50. The essentials:
as §1

For test [3], the target named is T3, pERK1/2 (Thr202/Tyr204), NCI-1H441 (KRAS G12V) (Homo sapiens, UniProt P01116, G12V).
T3 construct: pERK1/2 HTRF read-out
T3 sequence (P01116 1-188 isoform P01116-2 G12V): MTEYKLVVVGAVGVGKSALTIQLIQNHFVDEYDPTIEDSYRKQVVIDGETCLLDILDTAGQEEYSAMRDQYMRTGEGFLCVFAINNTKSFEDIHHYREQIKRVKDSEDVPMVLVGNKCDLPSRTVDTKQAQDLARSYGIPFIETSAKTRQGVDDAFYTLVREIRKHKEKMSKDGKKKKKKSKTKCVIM
Nature of the test: Assay of intracellular pERK1/2 (Thr202/Tyr204) phosphorylation in NCI-H441 cells (KRAS G12V). The conditions noted are these: pERK1/2, 2 days, read-out: NCI-H441 (KRAS G12V) IC50. The gist of the method: as §1

SMILES strings stand for the structures. A value given as a limit tells only on which side of the number the result lay.

T1 sequence (P01116 1-188 isoform P01116-2 G12C): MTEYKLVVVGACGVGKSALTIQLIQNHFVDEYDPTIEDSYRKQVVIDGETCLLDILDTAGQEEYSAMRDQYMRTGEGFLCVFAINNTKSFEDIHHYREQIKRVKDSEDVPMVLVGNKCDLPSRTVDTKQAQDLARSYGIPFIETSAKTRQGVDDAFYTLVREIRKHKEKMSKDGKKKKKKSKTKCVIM

For orientation: IC50 means the concentration that inhibits the measured activity by half. For `[2H]C1([2H])Oc2nc(-c3cc(N)c(F)c(Cl)c3C(F)(F)F)c(F)c3nc(OC[C@@H]4C[C@@H](F)CN4C)nc(c23)N(C(C)c2cccnc2N)C1([2H])[2H]` (single isomer, unassigned) [Compound 208, 3-((R or S)-1-(5-(5-amino-3-chloro-4-fluoro-2-(trifluoromethyl)phenyl)-4-fluoro-2-(((2S,4R)-4-fluoro-1-methylpyrrolidin-2-yl)methoxy)-8,9-dihydro-10H-7-oxa-1,3,6,10-tetraazacyclohepta[de]naphthalen-10-yl-8,8,9,9-d4)ethyl)pyridin-2-amine], the IC50 in test [1] is 0.4 nM; in test [2], 10 nM; in test [3] it was 1 nM.

Consider `[2H]C1([2H])Oc2nc(-c3cc(N)c(F)c(Cl)c3C(F)(F)F)c(F)c3nc(OC[C@@H]4C[C@@H](F)CN4C)nc(c23)N(C(C)c2cccnc2N)C1([2H])[2H]` (single isomer, unassigned) [Compound 209, 3-((R or S)-1-(5-(5-amino-3-chloro-4-fluoro-2-(trifluoromethyl)phenyl)-4-fluoro-2-(((2S,4R)-4-fluoro-1-methylpyrrolidin-2-yl)methoxy)-8,9-dihydro-10H-7-oxa-1,3,6,10-tetraazacyclohepta[de]naphthalen-10-yl-8,8,9,9-d4)ethyl)pyridin-2-amine], for which the IC50 in test [1] is 13 nM; in test [2] it was over 100 nM; in test [3] it was 45 nM.

For `CCC(c1cccnc1N)N1CCOc2nc(-c3cc(N)c(F)c(C)c3C(F)(F)F)c(F)c3nc(OC[C@@]45CCCN4C[C@H](F)C5)nc1c23` (single isomer, unassigned) [Compound 212, 3-((R or S)-1-(5-(5-amino-4-fluoro-3-methyl-2-(trifluoromethyl)phenyl)-4-fluoro-2-(((2R,7aS)-2-fluorotetrahydro-1H-pyrrolizin-7a(5H)-yl)methoxy)-8,9-dihydro-10H-7-oxa-1,3,6,10-tetraazacyclohepta[de]naphthalen-10-yl)propyl)pyridin-2-amine], the results for the IC50 in test [1], in test [2] and in test [3] were 0.3 nM, 6 nM and 0.6 nM, respectively.

As to `CC[C@@H](c1cccnc1N)N1CCOc2nc(-c3cc(N)c(F)c(C)c3C(F)(F)F)c(F)c3nc(OC[C@@]45CCCN4C[C@H](F)C5)nc1c23` (single isomer, unassigned) [Compound 213, 3-((R or S)-1-(5-(5-amino-4-fluoro-3-methyl-2-(trifluoromethyl)phenyl)-4-fluoro-2-(((2R,7aS)-2-fluorotetrahydro-1H-pyrrolizin-7a(5H)-yl)methoxy)-8,9-dihydro-10H-7-oxa-1,3,6,10-tetraazacyclohepta[de]napthalen-10-yl)propyl)pyridin-2-amine], the IC50 is 13 nM in test [1], over 100 nM in test [2] and 18 nM in test [3].

On to `CCC(c1cccnc1N)N1CCOc2nc(-c3cc(N)c(F)c(Cl)c3C(F)(F)F)c(F)c3nc(OC[C@@]45CCCN4C[C@H](F)C5)nc1c23` (single isomer, unassigned) [Compound 214, 3-((R or S)-1-(5-(5-amino-3-chloro-4-fluoro-2-(trifluoromethyl)phenyl)-4-fluoro-2-(((2R,7aS)-2-fluorotetrahydro-1H-pyrrolizin-7a(5H)-yl)methoxy)-8,9-dihydro-10H-7-oxa-1,3,6,10-tetraazacyclohepta[de]naphthalen-10-yl)propyl)pyridin-2-amine], for which the IC50 was 0.2 nM in test [1], 4 nM in test [2] and 0.3 nM in test [3].

Consider `CCC(c1cccnc1N)N1CCOc2nc(-c3cc(N)c(F)c(Cl)c3C(F)(F)F)c(F)c3nc(OC[C@@]45CCCN4C[C@H](F)C5)nc1c23` (single isomer, unassigned) [Compound 215, 3-((R or S)-1-(5-(5-amino-3-chloro-4-fluoro-2-(trifluoromethyl)phenyl)-4-fluoro-2-(((2R,7aS)-2-fluorotetrahydro-1H-pyrrolizin-7a(5H)-yl)methoxy)-8,9-dihydro-10H-7-oxa-1,3,6,10-tetraazacyclohepta[de]naphthalen-10-yl)propyl)pyridin-2-amine], for which the half-inhibitory concentration (IC50) in test [1] was 21 nM; in test [2], over 100 nM; in test [3], 36 nM.

Take `CCC(c1cccnc1N)N1CCOc2nc(-c3cc(N)c(F)c(F)c3C(F)(F)F)c(F)c3nc(OC[C@@]45CCCN4C[C@H](F)C5)nc1c23` (single isomer, unassigned) [Compound 216, 3-((R or S)-1-(5-(5-amino-3,4-difluoro-2-(trifluoromethyl)phenyl)-4-fluoro-2-(((2R,7aS)-2-fluorotetrahydro-1H-pyrrolizin-7a(5H)-yl)methoxy)-8,9-dihydro-10H-7-oxa-1,3,6,10-tetraazacyclohepta[de]naphthalen-10-yl)propyl)pyridin-2-amine]: the IC50 came out at 2 nM in test [1], 48 nM in test [2] and 2 nM in test [3].

`CCC(c1cccnc1N)N1CCOc2nc(-c3cc(N)c(F)c(F)c3C(F)(F)F)c(F)c3nc(OC[C@@]45CCCN4C[C@H](F)C5)nc1c23` (single isomer, unassigned) [Compound 217, 3-((R or S)-1-(5-(5-amino-3,4-difluoro-2-(trifluoromethyl)phenyl)-4-fluoro-2-(((2R,7aS)-2-fluorotetrahydro-1H-pyrrolizin-7a(5H)-yl)methoxy)-8,9-dihydro-10H-7-oxa-1,3,6,10-tetraazacyclohepta[de]naphthalen-10-yl)propyl)pyridin-2-amine]: the IC50 in test [1], in test [2] and in test [3] was over 100 nM throughout.

Regarding `[2H]C1([2H])CC[C@@]2(COc3nc4c5c(nc(-c6cc(N)c(F)c(Cl)c6C(F)(F)F)c(F)c5n3)OC([2H])([2H])C([2H])([2H])N4[C@H](C)c3cccnc3N)C[C@@H](F)CN12` (single isomer, unassigned) [Compound 222, 3-((R or S)-1-(5-(5-amino-3-chloro-4-fluoro-2-(trifluoromethyl)phenyl)-4-fluoro-2-(((2R,7aS)-2-fluorotetrahydro-1H-pyrrolizin-7a(5H)-yl-5,5-d2)methoxy)-8,9-dihydro-10H-7-oxa-1,3,6,10-tetraazacyclohepta[de]naphthalen-10-yl-8,8,9,9-d4)ethyl)pyridin-2-amine], the values for the IC50 in test [1], in test [2] and in test [3] were 0.1 nM, 2 nM and 0.4 nM, respectively.

For the molecule `[2H]C1([2H])CC[C@@]2(COc3nc4c5c(nc(-c6cc(N)c(F)c(Cl)c6C(F)(F)F)c(F)c5n3)OC([2H])([2H])C([2H])([2H])N4C(C)c3cccnc3N)C[C@@H](F)CN12` (single isomer, unassigned) [Compound 223, 3-((R or S)-1-(5-(5-amino-3-chloro-4-fluoro-2-(trifluoromethyl)phenyl)-4-fluoro-2-(((2R,7aS)-2-fluorotetrahydro-1H-pyrrolizin-7a(5H)-yl-5,5-d2)methoxy)-8,9-dihydro-10H-7-oxa-1,3,6,10-tetraazacyclohepta[de]naphthalen-10-yl-8,8,9,9-d4)ethyl)pyridin-2-amine], the results for the IC50 in test [1], in test [2] and in test [3] were 2 nM, 20 nM and 7 nM, respectively.

For the molecule `CC(c1cccnc1N)N1CCOc2nc(-c3cc(N)c(F)c(Cl)c3C(F)(F)F)c(F)c3nc(OC[C@@]45CCCN4CC4(CC4(F)F)C5)nc1c23` (single isomer, unassigned) [Compound 227], the IC50 is 0.2 nM in test [1], 2 nM in test [2] and 0.6 nM in test [3].

For the molecule `Cc1c(F)c(N)cc(-c2nc3c4c(nc(OC[C@@]56CCCN5CC5(CC5(F)F)C6)nc4c2F)N(C(C)c2cccnc2N)CCO3)c1C(F)(F)F` (single isomer, unassigned) [Compound 228], the IC50 in test [1] was 0.2 nM; in test [2] it was 0.8 nM; in test [3] it was 0.5 nM.

On to `Cc1c(F)c(N)cc(-c2nc3c4c(nc(OC[C@@]56CCCN5C[C@H](F)C6)nc4c2F)N(C(C)c2cccnc2N)C[C@@H](C)O3)c1C(F)(F)F` (single isomer, unassigned) [Compound 247, 3-((R or S)-1-((R)-5-(5-amino-4-fluoro-3-methyl-2-(trifluoromethyl)phenyl)-4-fluoro-2-(((2R,7aS)-2-fluorotetrahydro-1H-pyrrolizin-7a(5H)-yl)methoxy)-8-methyl-8,9-dihydro-10H-7-oxa-1,3,6,10-tetraazacyclohepta[de]naphthalen-10-yl)ethyl)pyridin-2-amine], for which the IC50 in test [1], in test [2] and in test [3] was over 100 nM throughout.

As to `Cc1c(F)c(N)cc(-c2nc3c4c(nc(OC[C@@]56CCCN5C[C@H](F)C6)nc4c2F)N(C(C)c2cccnc2N)C[C@@H](C)O3)c1C(F)(F)F` (single isomer, unassigned) [Compound 248, 3-((R or S)-1-((R)-5-(5-amino-4-fluoro-3-methyl-2-(trifluoromethyl)phenyl)-4-fluoro-2-(((2R,7aS)-2-fluorotetrahydro-1H-pyrrolizin-7a(5H)-yl)methoxy)-8-methyl-8,9-dihydro-10H-7-oxa-1,3,6,10-tetraazacyclohepta[de]naphthalen-10-yl)ethyl)pyridin-2-amine], the 50% inhibitory concentration (IC50) stood at 0.4 nM in test [1], 8 nM in test [2] and 1 nM in test [3].
